Source: BindingDB's records for PubMed 36970145 (n/a, 2023)

Experiment: Inhibition of human 20S immuno proteosome beta5i subunit using Suc-LLVY-AMC as substrate measured after 10 mins by fluorescence based analysis

SMILES	IC50 [µM]
COc1ccccc1NC(=O)Nc1ccc2n(c1=O)C[C@@H]1C[C@H]2CN(C(=O)c2ccc3ccccc3c2)C1	5.6
O=C(Nc1ccccc1)Nc1ccc2n(c1=O)C[C@@H]1C[C@H]2CN(C(=O)c2ccc3ccccc3c2)C1	31.6
N#Cc1cccc(NC(=O)Nc2ccc3n(c2=O)C[C@@H]2C[C@H]3CN(C(=O)c3ccc4ccccc4c3)C2)c1	22.1
O=C(Nc1ccc(Cl)cc1)Nc1ccc2n(c1=O)C[C@@H]1C[C@H]2CN(C(=O)c2ccc3ccccc3c2)C1	8.44
